The values that follow are results of earlier work, collected in patent US20070015728A1, “Metered-dose and safety and compliance packaging for systemic anticancer therapy” (priority 2005, published 2007).

One series concerns the target T1, OPRT (Homo sapiens, UniProt P11172).
T1 sequence (P11172 1-480): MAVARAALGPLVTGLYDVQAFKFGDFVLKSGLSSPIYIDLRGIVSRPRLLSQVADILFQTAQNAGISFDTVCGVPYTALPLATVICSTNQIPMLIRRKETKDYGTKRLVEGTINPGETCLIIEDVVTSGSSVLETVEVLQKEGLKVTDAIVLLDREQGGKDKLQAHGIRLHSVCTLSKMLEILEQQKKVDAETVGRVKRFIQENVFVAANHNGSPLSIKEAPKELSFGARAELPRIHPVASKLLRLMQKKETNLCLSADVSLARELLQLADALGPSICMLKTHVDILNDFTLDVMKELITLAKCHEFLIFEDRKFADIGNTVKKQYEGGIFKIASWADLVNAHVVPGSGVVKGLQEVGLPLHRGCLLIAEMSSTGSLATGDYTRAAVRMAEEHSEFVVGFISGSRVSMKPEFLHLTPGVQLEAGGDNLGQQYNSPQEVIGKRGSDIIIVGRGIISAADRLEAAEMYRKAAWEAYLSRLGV
Particulars: neutral pH.

A further series relates to hand-foot syndrome (HFS). The following applies: treatment with capecitabine at the FDA-approved dose; XELODA product insert.

Turning to `O=C(O)c1cc(=O)[nH]c(=O)[nH]1` [Orotate], the “Km for OPRT, fold lower than 5-FU” value at OPRT is reported as about 50 fold.

As to `CCCCCOC(=O)Nc1nc(=O)n([C@@H]2O[C@H](C)[C@@H](O)[C@H]2O)cc1F` [Xeloda, Capecitabine], in the series on hand-foot syndrome (HFS), the “grade 3 incidence of HFS” value is reported as 11-17% and the “incidence of HFS irrespective of grade” value was 54%-67%.
